# Data reported in PubChem BioAssay (NCI).
# Several values for one entry are separate records, joined by “and”; a condition that tells them apart may be missing. Equal values may be shown once.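 Interpolation was linear, between the two tested concentrations surrounding the appropriate level; five concentrations were tested over 48 hours in 96-well plates. At the GI50, growth is halved. TGI is the concentration that stops growth completely.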
# Tests used:
# Assay in all cases: NCI tumour cell line growth inhibition, 48 h
# MDA-MB-231 breast = system: MDA-MB-231 breast
# HOP-92 NSCLC = system: HOP-92 NSCLC
# NCI-H522 lung = system: NCI-H522 lung
# M14 melanoma = system: M14 melanoma
# SF-268 CNS = system: SF-268 CNS
# BT-549 breast = system: BT-549 breast
# SN12C renal = system: SN12C renal
# NCI-H23 lung = system: NCI-H23 lung
# SW-620 colon = system: SW-620 colon
# MCF7 breast = system: MCF7 breast
SMILES,GI50 (MDA-MB-231 breast) [nM],TGI (MDA-MB-231 breast),GI50 (HOP-92 NSCLC) [nM],TGI (HOP-92 NSCLC) [µM],GI50 (NCI-H522 lung) [nM],TGI (NCI-H522 lung) [µM],GI50 (M14 melanoma) [nM],TGI (M14 melanoma) [µM],GI50 (SF-268 CNS) [nM],TGI (SF-268 CNS) [µM],GI50 (BT-549 breast) [nM],TGI (BT-549 breast) [µM],GI50 (SN12C renal) [nM],TGI (SN12C renal),TGI (NCI-H23 lung),TGI (SW-620 colon) [µM],GI50 (SW-620 colon) [nM],TGI (MCF7 breast) [µM],GI50 (NCI-H23 lung) [µM],GI50 (MCF7 breast) [nM]
COc1ccc(NC(=O)Nc2ccc(Nc3nc(C)cc(Nc4ccc(C)cc4)n3)cc2)cc1,894,2460 nM,1440,3.11,1930,4.42,1770,3.72,2160,5.07,1880,4.24,1880,3.86 µM,–,–,–,–,–,–
Cc1c(C2Cc3ccccc3N2C(=O)/C=C\C(=O)O)c2ccccc2n1C (stereo not given),–,–,–,36.3,–,46.4,–,76.2,–,35.9,–,–,–,45.6 µM,62.9 µM,41.5,–,–,–,–
CC[C@@H](C)[C@H]([C@H](CC(=O)N1CCC[C@@H]1[C@@H](OC)[C@H](C)C(=O)N[C@H](Cc1ccccc1)c1nccs1)OC)N(C)C(=O)[C@H](NC(=O)[C@@H](C(C)C)N(C)C)C(C)C,0.147,0.867 nM and < 48 nM,0.425,–,0.0657,0.000351,–,–,–,–,0.0848,> 100,0.425,4.25 µM and > 14.7 µM,0.00554 µM and < 0.215 µM,–,0.425,> 100,–,–
CCOC(=O)CC1=NC(=Nc2cc(Cl)ccc2Cl)SC1,–,–,–,> 100,–,> 100,–,> 100,–,> 100,–,–,–,> 100 µM,> 100 µM,> 100,–,–,–,–
NC1=NC2(O)c3ccccc3C(=O)C2(O)N1 (stereo not given),–,–,–,> 100,–,> 100,–,> 100,–,> 100,–,–,–,> 100 µM,> 100 µM,> 100,–,–,–,–
NS(=O)(=O)c1ccc(NC(=O)CC(=O)Nc2ccc(S(N)(=O)=O)cc2)cc1,–,–,–,> 100,–,> 100,–,> 100,–,> 100,–,–,–,> 100 µM,> 100 µM,> 100,–,–,–,–
O=C(CCC(=O)N/N=C/c1ccccc1O)N/N=C/c1ccccc1O,–,–,–,56.7,–,> 100,–,–,–,52.4,–,–,–,> 100 µM,> 100 µM,> 100,–,–,–,–
BrC(Br)(Br)c1cnc2ccccc2n1,1390,3220 nM,1500,3.14,544,1.28,2050,6.42,4000,17.5,2400,6.84,3710,14.1 µM,17.1 µM,–,–,5.42,3.6,1530
Oc1ccc(Br)cc1/C=N/NC(=S)NC12CC3CC(CC(C3)C1)C2,1950,5540 nM,2350,6.58,4780,16.1,1860,5.84,1440,4.14,4360,15.7,1630,3.18 µM,–,3.47,1740,5.92,–,1860
CCc1ccc(/C(C)=N/NC(N)=S)cc1,–,–,–,> 100,–,–,–,> 100,–,> 100,–,–,–,–,> 100 µM,–,–,–,–,–
